Data reported in ChEMBL document CHEMBL3864155, “Dihydrostilbenes and diarylpropanes: Synthesis and in vitro pharmacological evaluation as potent nitric oxide production inhibition agents” (Bioorg Med Chem Lett, 2016).

How the values were obtained:
[1] = Antiinflammatory activity in mouse RAW264.7 cells assessed as inhibition of LPS-induced nitric oxide production at 1 uM after 18 hrs by Griess assay relative to control; assay type: functional; conditions: RAW264.7, 18 h
[2] = Cytotoxicity against mouse RAW264.7 cells assessed as cell proliferation rate at 1 uM after 24 hrs by MTS assay relative to control; assay type: toxicity; conditions: read-out: Activity
[3] = Cytotoxicity against mouse RAW264.7 cells assessed as cell proliferation rate at 10 uM after 24 hrs by MTS assay relative to control; assay type: toxicity; conditions: read-out: Activity
[4] = Cytotoxicity against mouse RAW264.7 cells assessed as cell proliferation rate at 100 uM after 24 hrs by MTS assay relative to control; assay type: toxicity; conditions: read-out: Activity
[5] = Antiinflammatory activity in mouse RAW264.7 cells assessed as inhibition of LPS-induced nitric oxide production at 10 uM after 18 hrs by Griess assay relative to control; assay type: functional; conditions: RAW264.7, 18 h
[6] = Cytotoxicity against mouse RAW264.7 cells assessed as decrease in cell proliferation rate after 24 hrs by MTS assay; assay type: toxicity
RAW264.7 [7] = experiment: Effect on LPS-induced iNOS expression in mouse RAW264.7 cells at 10 uM after 18 hrs by Western blot method relative to LPS; assay type: functional
[8] = Cytotoxicity against mouse RAW264.7 cells assessed as cell proliferation rate at 50 uM after 24 hrs by MTS assay relative to control; assay type: toxicity; conditions: read-out: Activity
RAW264.7 [9] = experiment: Antiinflammatory activity in mouse RAW264.7 cells assessed as inhibition of LPS-induced nitric oxide production at 1 to 10 uM after 18 hrs by Griess assay; assay type: functional, cell-based
[10] = Antiinflammatory activity in mouse RAW264.7 cells assessed as inhibition of LPS-induced nitric oxide production at 50 to 100 uM after 18 hrs by Griess assay relative to control; assay type: functional

`Oc1cc(O)cc(CCCc2ccc3c(c2)OCO3)c1` gave an inhibition at 1 µM [1] of 40.8%, a viability at 24 h, 1 µM [2] of 116% and a viability at 24 h, 10 µM [3] of 102%. It also gave a viability at 24 h, 100 µM [4] of 70.4%, an inhibition at 10 µM [5] of 53.6% and an IC50 at 24 h [6] of 1.3 µM. For the same compound, the “fold change (FC)” value (RAW264.7 [7]) was 0.74, the viability at 24 h, 50 µM [8] was 86.7% and the inhibition (RAW264.7 [9]) was “Dose-dependent effect”. For the same compound, the “inhibition (INH)” value [10] was greater than 80%.
`COc1ccc(CCc2ccc(O)c(O)c2OC)cc1OC` showed an inhibition at 1 µM [1] of 24.3%, a viability at 24 h, 1 µM [2] of 106% and a viability at 24 h, 10 µM [3] of 99.9%. For the same compound, the viability at 24 h, 100 µM [4] was 81.9%, the inhibition at 10 µM [5] was 75.5% and the IC50 at 24 h [6] was 2.98 µM. For the same compound, the “fold change (FC)” value (RAW264.7 [7]) was 0.65, the viability at 24 h, 50 µM [8] was 94.8% and the inhibition (RAW264.7 [9]) was “Dose-dependent effect”. The “inhibition (INH)” value [10] was greater than 80%.
Work on `COc1cc(CCc2cc(OC)c(O)c(OC)c2)ccc1O` [MOSCATILIN] yielded an inhibition at 1 µM [1] of 7.4%, a viability at 24 h, 1 µM [2] of 143% and a viability at 24 h, 10 µM [3] of 52.9%. The viability at 24 h, 100 µM [4] was 59.6%, the inhibition at 10 µM [5] was 78.4% and the IC50 at 24 h [6] was 4.4 µM. The “fold change (FC)” value (RAW264.7 [7]) was 0.93, the viability at 24 h, 50 µM [8] was 47% and the inhibition (RAW264.7 [9]) was “Dose-dependent effect”. For the same compound, the “inhibition (INH)” value [10] was greater than 80%.
Work on `COc1cc(CCc2cc(OC)c(OC)cc2O)ccc1O` yielded an inhibition at 1 µM [1] of 35.2%, a viability at 24 h, 1 µM [2] of 120% and a viability at 24 h, 10 µM [3] of 124%. It also gave a viability at 24 h, 100 µM [4] of 133%, an inhibition at 10 µM [5] of 29.5% and an IC50 at 24 h [6] of 13.8 µM. The “fold change (FC)” value (RAW264.7 [7]) was 1.12, the viability at 24 h, 50 µM [8] was 128% and the “inhibition (INH)” value [10] was greater than 80%.
In the case of `Oc1cc(O)cc(CCc2ccc3c(c2)OCO3)c1`, the inhibition at 1 µM [1] is reported as 17%, the viability at 24 h, 1 µM [2] is reported as 96.8% and the viability at 24 h, 10 µM [3] is reported as 90.8%. For the same compound, the viability at 24 h, 100 µM [4] was 78.9%, the inhibition at 10 µM [5] was 28.3% and the IC50 at 24 h [6] was 14.5 µM. The “fold change (FC)” value (RAW264.7 [7]) was 0.93, the viability at 24 h, 50 µM [8] was 82.7% and the inhibition (RAW264.7 [9]) was “Dose-dependent effect”. The “inhibition (INH)” value [10] was greater than 80%.
Compound `COc1ccc(CCCc2ccc(O)c(O)c2O)cc1OC` has an inhibition at 1 µM [1] of 29.6%, a viability at 24 h, 1 µM [2] of 110% and a viability at 24 h, 10 µM [3] of 130%. For the same compound, the viability at 24 h, 100 µM [4] was 73.2%, the inhibition at 10 µM [5] was 28.6% and the IC50 at 24 h [6] was 10.7 µM. The “fold change (FC)” value (RAW264.7 [7]) was 0.71, the viability at 24 h, 50 µM [8] was 86.4% and the “inhibition (INH)” value [10] was greater than 80%.
Work on `COc1ccc(CCc2ccc(O)c(O)c2O)cc1OC` yielded an inhibition at 1 µM [1] of 42.7%, a viability at 24 h, 1 µM [2] of 114% and a viability at 24 h, 10 µM [3] of 114%. It also gave a viability at 24 h, 100 µM [4] of 133%, an inhibition at 10 µM [5] of 47% and an IC50 at 24 h [6] of 6.02 µM. For the same compound, the “fold change (FC)” value (RAW264.7 [7]) was 0.92, the viability at 24 h, 50 µM [8] was 128% and the inhibition (RAW264.7 [9]) was “Dose-dependent effect”. The “inhibition (INH)” value [10] was greater than 80%.
Compound `CNC(=N)NCCC[C@H](N)C(=O)O` [TILARGININE] has an inhibition at 1 µM [1] of 15%, a viability at 24 h, 1 µM [2] of 100% and a viability at 24 h, 10 µM [3] of 100%. For the same compound, the viability at 24 h, 100 µM [4] was 97.2%, the inhibition at 10 µM [5] was 90.1% and the IC50 at 24 h [6] was 2.73 µM. For the same compound, the “fold change (FC)” value (RAW264.7 [7]) was 0.92 - 1.02 and the viability at 24 h, 50 µM [8] was 113%.
`COc1cc(CCCc2cc(OC)c(OC)cc2O)ccc1O` gave an inhibition at 1 µM [1] of 38.2%, a viability at 24 h, 1 µM [2] of 135% and a viability at 24 h, 10 µM [3] of 113%. For the same compound, the viability at 24 h, 100 µM [4] was 80.9%, the inhibition at 10 µM [5] was 56.5% and the IC50 at 24 h [6] was 4.46 µM. For the same compound, the “fold change (FC)” value (RAW264.7 [7]) was 0.73, the viability at 24 h, 50 µM [8] was 88.4% and the inhibition (RAW264.7 [9]) was “Dose-dependent effect”. The “inhibition (INH)” value [10] was greater than 80%.
`COc1cc(CCCc2cc(OC)c(O)c(OC)c2)ccc1O` showed an inhibition at 1 µM [1] of 27.2%, a viability at 24 h, 1 µM [2] of 98.4% and a viability at 24 h, 10 µM [3] of 98.7%. For the same compound, the viability at 24 h, 100 µM [4] was 82%, the inhibition at 10 µM [5] was 21.8% and the IC50 at 24 h [6] was 16.4 µM. For the same compound, the “fold change (FC)” value (RAW264.7 [7]) was 0.81, the viability at 24 h, 50 µM [8] was 88.7% and the “inhibition (INH)” value [10] was greater than 80%.
In the case of `COc1ccc(CCCc2ccc(O)c(O)c2OC)cc1OC`, the inhibition at 1 µM [1] is reported as 36.9%, the viability at 24 h, 1 µM [2] is reported as 118% and the viability at 24 h, 10 µM [3] is reported as 103%. The viability at 24 h, 100 µM [4] was 61.9%, the inhibition at 10 µM [5] was 100% and the IC50 at 24 h [6] was 1.84 µM. The “fold change (FC)” value (RAW264.7 [7]) was 0.39, the viability at 24 h, 50 µM [8] was 86.3% and the inhibition (RAW264.7 [9]) was “Dose-dependent effect”. The “inhibition (INH)” value [10] was greater than 80%.
